One test has as its target Tel-FGFR4 (Homo sapiens (Human), UniProt P22455). In words: In vitro cellular kinase assay for FGFR4 (BaF3-Tel-FGFR4 cells, MSD capture ELISA of tyrosine phosphorylation). The test is classed as cell-based.
Test [1] addresses FGFR4 (GST-FGFR4(388-802)) (Homo sapiens (Human), UniProt P22455). In words: In-vitro biochemical kinase assay for FGFR4 (Caliper microfluidic mobility shift).
Setting [2] is: Cellular BaF3 FGFR4 assay, read-out: Cellular IC50.
The mark [3] stands for this setting: biochemical FGFR4 assay, read-out: Biochemical IC50.
Setting [4] is: measured and considered as outlier values, not included in the table or list, read-out: IC50 in the cellular BaF3 FGFR4 assay, outlier values.
Where [5] appears, read: BaF3-Tel-FGFR4 cells, 1 hour incubation, read-out: Cellular BaF3 FGFR4 IC50.
The mark [6] stands for this setting: read-out: Biochemical FGFR4 IC50.

Several values for one entry are separate records, joined by “and”; a condition that tells them apart may be missing. Equal values may be shown once. Read-outs that look alike come from different tables or passages of the source.

Chain of Tel-FGFR4 (P22455 other isoform, or with tags, fused parts or gaps): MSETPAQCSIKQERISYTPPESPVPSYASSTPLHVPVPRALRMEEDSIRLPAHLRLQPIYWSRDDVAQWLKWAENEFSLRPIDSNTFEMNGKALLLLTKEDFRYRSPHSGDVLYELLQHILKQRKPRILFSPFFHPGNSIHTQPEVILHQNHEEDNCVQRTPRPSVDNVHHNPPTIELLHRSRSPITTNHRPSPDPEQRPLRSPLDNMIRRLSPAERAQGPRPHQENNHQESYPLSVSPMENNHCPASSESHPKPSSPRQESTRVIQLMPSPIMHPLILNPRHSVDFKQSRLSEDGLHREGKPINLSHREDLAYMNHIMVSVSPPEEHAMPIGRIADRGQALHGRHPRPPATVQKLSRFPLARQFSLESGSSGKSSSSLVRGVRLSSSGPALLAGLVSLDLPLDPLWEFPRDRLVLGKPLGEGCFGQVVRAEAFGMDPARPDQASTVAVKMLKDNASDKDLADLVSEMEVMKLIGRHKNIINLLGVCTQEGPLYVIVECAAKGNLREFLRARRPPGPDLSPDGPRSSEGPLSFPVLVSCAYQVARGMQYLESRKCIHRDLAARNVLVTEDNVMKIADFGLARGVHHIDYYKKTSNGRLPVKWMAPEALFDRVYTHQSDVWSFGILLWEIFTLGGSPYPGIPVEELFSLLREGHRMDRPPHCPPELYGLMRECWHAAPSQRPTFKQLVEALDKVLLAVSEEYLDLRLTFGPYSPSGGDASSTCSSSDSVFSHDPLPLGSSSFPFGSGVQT
Chain of FGFR4 (GST-FGFR4(388-802)) (P22455 388-802): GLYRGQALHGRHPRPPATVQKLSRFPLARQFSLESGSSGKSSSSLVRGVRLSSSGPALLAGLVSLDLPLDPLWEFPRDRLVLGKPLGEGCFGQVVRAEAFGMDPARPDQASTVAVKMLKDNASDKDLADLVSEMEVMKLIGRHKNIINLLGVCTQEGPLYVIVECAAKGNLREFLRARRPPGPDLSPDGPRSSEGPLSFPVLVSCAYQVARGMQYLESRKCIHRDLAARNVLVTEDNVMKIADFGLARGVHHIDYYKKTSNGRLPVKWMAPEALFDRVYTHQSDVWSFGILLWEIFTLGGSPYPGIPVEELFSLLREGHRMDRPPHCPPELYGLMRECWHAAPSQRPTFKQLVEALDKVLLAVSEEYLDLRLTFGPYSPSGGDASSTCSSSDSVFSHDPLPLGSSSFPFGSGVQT

Consider `CCN(Cc1cc2c(nc1C=O)N(C(=O)Nc1cc(NCCOC)c(C#N)cn1)CCC2)C(=O)CN(C)C` [N-(5-cyano-4-((2-methoxyethyl)amino)pyridin-2-yl)-6-((2-(dimethylamino)-N-ethylacetamido)methyl)-7-formyl-3,4-dihydro-1,8-naphthyridine-1(2H)-carboxamide], for which the results for the IC50 (on Tel-FGFR4 (setting [2]); in test [1] (setting [3])) were 5.5 nM and 0.5 nM, respectively.
On to `COC[C@@H](C)Oc1cc(NC(=O)N2CCCc3cc(CN(C)C(C)=O)c(C=O)nc32)ncc1C#N` [(R)-N-(5-cyano-4-((1-methoxypropan-2-yl)oxy)pyridin-2-yl)-7-formyl-6-((N-methylacetamido)methyl)-3,4-dihydro-1,8-naphthyridine-1(2H)-carboxamide], for which the IC50 – broadly, the point on the concentration scale where inhibition reaches its midpoint – worked out at 3.7 nM at Tel-FGFR4 (setting [2]), 174 nM on Tel-FGFR4 (setting [4]) and 0.5 nM in test [1] (setting [3]).
`COc1cc(NC(=O)N2CCCc3cc(CN4CCCC4=O)c(C=O)nc32)ncc1C(F)(F)F` [7-formyl-N-(4-methoxy-5-(trifluoromethyl)pyridin-2-yl)-6-((2-oxopyrrolidin-1-yl)methyl)-3,4-dihydro-1,8-naphthyridine-1(2H)-carboxamide]: the results for the IC50 (on Tel-FGFR4 (setting [2]); in test [1] (setting [3])) were 138 nM and 46.5 nM, respectively.
Turning to `CC(C)Oc1cc(NC(=O)N2c3nc(C=O)ccc3CCC2C)ncc1C#N` (stereo not drawn) [N-(5-cyano-4-isopropoxypyridin-2-yl)-7-formyl-2-methyl-3,4-dihydro-1,8-naphthyridine-1(2H)-carboxamide], the IC50 came out at 328 nM on Tel-FGFR4 (setting [2]) and 0.9 nM in test [1] (setting [3]).
Turning to `O=Cc1nc2c(cc1CO)CCCN2C(=O)Nc1ccc(F)cn1` [Example 76, N-(5-fluoropyridin-2-yl)-7-formyl-6-(hydroxymethyl)-3,4-dihydro-1,8-naphthyridine-1(2H)-carboxamide], the IC50 is 1610 nM and > 3000 nM at Tel-FGFR4 (setting [5]); 620 nM in test [1] (setting [6]).
Regarding `CN1CCC2(CCN(c3cc(NC(=O)N4CCCc5cc(CO)c(C=O)nc54)ncc3C#N)CC2)C1` [Example 45, N-(5-cyano-4-(2-methyl-2,8-diazaspiro[4.5]decan-8-yl)pyridin-2-yl)-7-formyl-6-(hydroxymethyl)-3,4-dihydro-1,8-naphthyridine-1(2H)-carboxamide], the values for the half-inhibitory concentration (IC50) (on Tel-FGFR4 (setting [5]); in test [1] (setting [6])) were 67 nM and 21 nM, respectively.
Regarding `CC(C)Oc1cc(NC(=O)N2c3nc(C=O)c(Br)cc3CC[C@H]2C)ncc1C#N` [(R)-6-bromo-N-(5-cyano-4-isopropoxypyridin-2-yl)-7-formyl-2-methyl-3,4-dihydro-1,8-naphthyridine-1(2H)-carboxamide], the figures for the IC50 (on Tel-FGFR4 (setting [2]); in test [1] (setting [3])) were 168 nM and 21 nM, respectively.
In the case of `N#Cc1cnc(NC(=O)N2CCCc3cc(CO)c(C=O)nc32)cc1OC1CCOCC1` [Example 53, N-(5-cyano-4-((tetrahydro-2H-pyran-4-yl)oxy)pyridin-2-yl)-7-formyl-6-(hydroxymethyl)-3,4-dihydro-1,8-naphthyridine-1(2H)-carboxamide], the IC50 turned out to be 36 nM on Tel-FGFR4 (setting [5]) and 2.9 nM in test [1] (setting [6]).
Consider `CCC(=O)N(C)Cc1cc2c(nc1C=O)N(C(=O)Nc1cc(OC(C)C)c(C#N)cn1)CCC2` [N-(5-cyano-4-isopropoxypyridin-2-yl)-7-formyl-6-((N-methylpropionamido)methyl)-3,4-dihydro-1,8-naphthyridine-1(2H)-carboxamide], for which the IC50 is 18.5 nM at Tel-FGFR4 (setting [2]), more than 3000 nM on Tel-FGFR4 (setting [4]) and 0.9 nM in test [1] (setting [3]).
As to `COCCNc1cc(NC(=O)N2CCCc3cc(CN4C(=O)CN(C)CC4(C)C)c(C=O)nc32)ncc1C#N` [N-(5-cyano-4-((2-methoxyethyl)amino)pyridin-2-yl)-7-formyl-6-((2,2,4-trimethyl-6-oxopiperazin-1-yl)methyl)-3,4-dihydro-1,8-naphthyridine-1(2H)-carboxamide], the IC50 was determined as 11 nM at Tel-FGFR4 (setting [2]) and 1.4 nM in test [1] (setting [3]).
As to `N#Cc1cnc(NC(=O)N2CCCc3cc(CN4CC[C@@H](O)C4=O)c(C=O)nc32)cc1OCC(F)F` [(R)-N-(5-cyano-4-(2,2-difluoroethoxyl)pyridin-2-yl)-7-formyl-6-((3-hydroxy-2-oxopyrrolidin-1-yl)methyl)-3,4-dihydro-1,8-naphthyridine-1(2H)-carboxamide], the IC50 is 7.9 nM on Tel-FGFR4 (setting [2]) and 3.7 nM in test [1] (setting [3]).
For `CN1CCN(Cc2cc3c(nc2C=O)N(C(=O)Nc2cc(OCCF)c(C#N)cn2)CCC3)C(=O)C1` [N-(5-cyano-4-(2-fluoroethoxyl)pyridin-2-yl)-7-formyl-6-((4-methyl-2-oxopiperazin-1-yl)methyl)-3,4-dihydro-1,8-naphthyridine-1(2H)-carboxamide] the same measures were 7.1 nM and 2.4 nM.
For `CC(C)Nc1cc(NC(=O)N2CCCc3cc(CN(C)C(=O)CN(C)C)c(C=O)nc32)ncc1C#N` [N-(5-cyano-4-(isopropylamino)pyridin-2-yl)-6-((2-(dimethylamino)-N-methylacetamido)methyl)-7-formyl-3,4-dihydro-1,8-naphthyridine-1(2H)-carboxamide] the same measures were 11.5 nM and 0.6 nM.
For the compound `CCNc1cc(NC(=O)N2CCCc3cc(CN(C)C(=O)CN(C)C)c(C=O)nc32)ncc1C#N` [N-(5-cyano-4-(ethylamino)pyridin-2-yl)-6-((2-(dimethylamino)-N-methylacetamido)methyl)-7-formyl-3,4-dihydro-1,8-naphthyridine-1(2H)-carboxamide], the IC50 was 3.6 nM at Tel-FGFR4 (setting [2]) and 0.2 nM in test [1] (setting [3]).
Consider `COC(C)(C)CNc1cc(NC(=O)N2CCCc3cc(C(F)F)c(C=O)nc32)ncc1C#N` [N-(5-cyano-4-((2-methoxy-2-methylpropyl)amino)pyridin-2-yl)-6-(difluoromethyl)-7-formyl-3,4-dihydro-1,8-naphthyridine-1(2H)-carboxamide], for which the IC50 at Tel-FGFR4 (setting [2]) is 37 nM; in test [1] (setting [3]), 5.9 nM.
Turning to `N#Cc1cnc(NC(=O)N2CCCc3ccc(C=O)nc32)cc1C1=CCOCC1` [Example 30, N-(5-cyano-4-(3,6-dihydro-2H-pyran-4-yl)pyridin-2-yl)-7-formyl-3,4-dihydro-1,8-naphthyridine-1(2H)-carboxamide], the IC50 at Tel-FGFR4 (setting [5]) was found to be 428 nM; in test [1] (setting [6]), 5.5 nM.
For `O=Cc1nc2c(cc1CO)CCCN2C(=O)Nc1ncc(Cl)c(O[C@H]2CCOC2)n1` [Example 69, (S)-N-(5-chloro-4-((tetrahydrofuran-3-yl)oxy)pyrimidin-2-yl)-7-formyl-6-(hydroxymethyl)-3,4-dihydro-1,8-naphthyridine-1(2H)-carboxamide] the same measures were 95 nM and 54 nM.
`O=Cc1ccc2c(n1)N(C(=O)Nc1cc(Cl)c(Cl)cn1)CCC2` [Example 2, N-(4,5-dichloropyridin-2-yl)-7-formyl-3,4-dihydro-1,8-naphthyridine-1(2H)-carboxamide]: the IC50 at Tel-FGFR4 (setting [5]) is more than 3000 nM; in test [1] (setting [6]) it was 30 nM.
Consider `COc1cc(NC(=O)N2CCCc3cc(CN4CCN(C)CC4=O)c(C=O)nc32)ncc1C#N` [N-(5-cyano-4-methoxypyridin-2-yl)-7-formyl-6-((4-methyl-2-oxopiperazin-1-yl)methyl)-3,4-dihydro-1,8-naphthyridine-1(2H)-carboxamide], for which the IC50 came to 10.2 nM at Tel-FGFR4 (setting [2]) and 4.8 nM in test [1] (setting [3]).
`CC(C)COc1cc(NC(=O)N2CCCc3cc(C(F)F)c(C=O)nc32)ncc1C#N` [N-(5-cyano-4-isobutoxypyridin-2-yl)-6-(difluoromethyl)-7-formyl-3,4-dihydro-1,8-naphthyridine-1(2H)-carboxamide]: the IC50 was determined as 139 nM on Tel-FGFR4 (setting [2]) and 30 nM in test [1] (setting [3]).
The like results for `COc1cc(NC(=O)N2CCCc3cc(CN4CCCC4(C)C)c(C=O)nc32)ncc1C#N` [N-(5-cyano-4-methoxypyridin-2-yl)-6-((2,2-dimethylpyrrolidin-1-yl)methyl)-7-formyl-3,4-dihydro-1,8-naphthyridine-1(2H)-carboxamide] were, in that order, more than 3000 nM and 440 nM.
Consider `CC(C)(O)CNc1cc(NC(=O)N2CCCc3cc(CO)c(C=O)nc32)ncc1C#N` [Example 86, N-(5-cyano-4-((2-hydroxy-2-methylpropyl)amino)pyridin-2-yl)-7-formyl-6-(hydroxymethyl)-3,4-dihydro-1,8-naphthyridine-1(2H)-carboxamide], for which the IC50 at Tel-FGFR4 (setting [5]) was 12 nM; in test [1] (setting [6]), 4.9 nM.
Take `CN1CCN(Cc2cc3c(nc2C=O)N(C(=O)Nc2cc(OCC(F)F)c(C#N)cn2)CCC3)C(=O)C1` [N-(5-cyano-4-(2,2-difluoroethoxyl)pyridin-2-yl)-7-formyl-6-((4-methyl-2-oxopiperazin-1-yl)methyl)-3,4-dihydro-1,8-naphthyridine-1(2H)-carboxamide]: the IC50 on Tel-FGFR4 (setting [2]) is 6.7 nM; in test [1] (setting [3]) it was 1.2 nM.
For `N#Cc1cnc(NC(=O)N2CCCc3cc(CO)c(C=O)nc32)nc1O[C@H]1CCOC1` [Example 70, (S)-N-(5-cyano-4-((tetrahydrofuran-3-yl)oxy)pyrimidin-2-yl)-7-formyl-6-(hydroxymethyl)-3,4-dihydro-1,8-naphthyridine-1(2H)-carboxamide], the IC50 at Tel-FGFR4 (setting [5]) came out at 43 nM; in test [1] (setting [6]), 27 nM.
For `CC(C)(O)CNc1cc(NC(=O)N2CCCc3cc(C(F)F)c(C=O)nc32)ncc1C#N` [N-(5-cyano-4-((2-hydroxy-2-methylpropyl)amino)pyridin-2-yl)-6-(difluoromethyl)-7-formyl-3,4-dihydro-1,8-naphthyridine-1(2H)-carboxamide], the values for the IC50 (at Tel-FGFR4 (setting [2]); in test [1] (setting [3])) were 10.3 nM and 1.6 nM, respectively.
As for `COC[C@@H](C)Nc1cc(NC(=O)N2CCCc3cc(CN4CCOCC4=O)c(C=O)nc32)ncc1C#N` [(R)-N-(5-cyano-4-((1-methoxypropan-2-yl)amino)pyridin-2-yl)-7-formyl-6-((3-oxomorpholino)methyl)-3,4-dihydro-1,8-naphthyridine-1(2H)-carboxamide], the IC50 on Tel-FGFR4 (setting [2]) came to 4.6 nM; in test [1] (setting [3]), 2.4 nM.

The values above are taken from US9266883B2, “Ring-fused bicyclic pyridyl derivatives as FGFR4 inhibitors” (Novartis AG, priority 2013, dated 2016).
